# Patent US20120283298A1, “METHODS FOR TREATING MEMORY IMPAIRMENT” (priority 2009, published 2012)
# “Also recorded” adds a separate entry of the source.
# Tests used:
# [1] = system: SAMP8 mice; assay: T-maze foot-shock avoidance acquisition after acute i.c.v. injection; assay type: in vivo, mouse
# Description: T-Maze Testing. The T-maze avoidance apparatus training and testing procedures have been previously described, and shown as an effective means to assess learning in SAMP8 mice (Flood and Morley, 1993; Farr et al., 2000). […] Octreotide is a primarily SSTR2 agonist, of the SRIF-1 family, serving as an additional control set. Forty-eight hours prior to testing, the mice were anesthetized with 2,2,2-tribromoethanol, placed in a stereotaxic instrument, and the scalp was deflected. A unilateral hole was drilled 0.5 mm anterior and 1.0 mm to the right of the bregma. […] This time frame is consistent with work by others showing somatostatin administration over 24 hrs decreased Aβ1-42 concentrations in the brain (Saito et al., 2005). […] Twenty-four hours following drug administration mice were evaluated using the T-maze test.
# The T-maze consisted of a black plastic alley with a start box at one end and two goal boxes at the other. The start box was separated from the alley by a plastic guillotine door, which prevented movement down the alley until training began. An electrifiable stainless steel rod floor ran throughout the maze to deliver scrambled foot-shock. Mice were trained and tested between 07:00 and 15:00 h. Mice were not permitted to explore the maze prior to training. A block of training trials began when a mouse was placed into the start box. The guillotine door was raised and a buzzer sounded simultaneously; 5 s later foot-shock was applied. The goal box entered on the first trial was designated “incorrect” and the foot-shock was continued until the mouse entered the other goal box, which in all subsequent trials was designated as “correct” for the particular mouse. At the end of the acquisition trial, mice were decapitated and the brains flash frozen and stored at −80° C. for subsequent analyses.
# [2] = system: SAMP8 mice; assay: T-maze acquisition and retention after chronic i.p. administration; assay type: in vivo, mouse; conditions: for mean trials to first avoidance versus vehicle (learning): day 21
# Protocol: T-Maze testing. The T-maze avoidance apparatus, training and testing procedures were as previously described in Example 1. […] Dosing range for i.p. administration (0.2-200 μg) was extrapolated from previous i.c.v. administration data as described in Example 1 above. Respective doses were given once a day over a period of 28 days. Learning and memory was assessed by the T-maze model. Learning evaluations were conducted at three weeks of treatment (day 21), while memory was assessed after one additional week of treatment (day 28). […] At the end of the evaluations mice were decapitated and the brains flash frozen and stored at −80° C. for subsequent analyses.
# [3] = system: Aβ42; assay: ELISA analysis of Aβ42 in brain tissue ex vivo; set-up: species or system mouse
# Protocol: Brain levels of Aβ42 were evaluated ex vivo, from flash frozen whole brain tissue following respective behavioral analyses, using ultra-centrifugation and solid phase extraction methods (Lanz and Schachter, 2006; Zupa-Fernandez et al., 2007), coupled with Enzyme-linked immunosorbent assay (ELISA) analysis. Half of the brain tissue was dedicated to Western blot examinations with remainder used for Aβ42 evaluation. Brain tissue was homogenized and incubated with 1 mL 50 mM NaCl, 0.4% DEA, pH=10, containing protease inhibitor (Roche, Indianapolis, Ind.). Samples were kept on ice for 20 min, followed by sonication at 30% for 30 sec. Samples were then incubated at room temperature (3 h) followed by centrifugation at 355,000×g for 30 min (4° C.). Supernatant was collected for extraction using Oasis HLB 3 cc columns (Waters, Milford, Mass.). Oasis columns were activated with 2 mL methanol (MeOH), followed by 2 mL diH2O. Brain homogenates were loaded in 1 mL increments. Samples were then washed sequentially with 1 mL volumes of 5% and 30% MeOH, then eluted with 1 mL 2% NH4OH in 90% MeOH. Eluted samples were collected and vacuum-centrifuged at 1400 rpm, 60° C. for 90-120 min. Once samples were dried completely, they were stored at −80° C. until assay. Samples were reconstituted and analyzed in duplicate according to ELISA assay directions (Beta-Mark Aβx-42, Covance, Dedham, Mass.) via luminometer (Lumistar Optima, BMG Labtech, Durham, N.C.). Aβ42 levels were calculated from linear-regression curve in pg/ml and then set to gram weight of brain tissue and normalized to respective controls.
# Evaluation of Aβ. Brain levels of Aβ42 were evaluated ex vivo as described above in Example 1.
# [4] = system: SAMP8 mice; assay: Object-recognition task after i.c.v. injection; assay type: in vivo, mouse; conditions: 0.2 μg i.c.v., 48 h after injection
# Protocol: Object-recognition is a non-spatial memory recognition task, shown to be effective in SAMP8 mice (Bevins and Besheer, 2006; Fontan-Lozano et al., 2008). In this task, treated and control mice are measured as to the difference in time spent with a familiar (or remembered) object and a novel object. Mice received a single optimized dose (0.2 μg) determined from T-maze assessment, against vehicle control (0 μg). Dosing was performed 24 h prior to the initial training period and the recognition task was evaluated 24 h after training (i.e. 48 h after dosing). Mice were habituated to an empty apparatus (55×40×40 cm) for 5 min a day for 3 days prior to entry of the objects. On the day of training two similar objects were placed in the maze. Mice were placed in the maze and allowed to explore the objects for 5 min. In the 24-h retention test, one of the same objects is placed in the maze, as well as a new object in a new location. The difference in percent time spent exploring the new object over the familiar object was then determined. The criteria for exploration were based strictly on active exploration, where the mouse had both forelimbs within a circle of 1.5 cm around the object, with its head oriented toward it, or when touching it with its vibrissae. At the end of the retention trial, mice were decapitated and the brains flash frozen and stored at −80° C. for subsequent analyses.
# [5] = system: SSTR4, APP, and NEP; assay: Western blot expression of SSTR4, APP and NEP in brain tissue ex vivo; set-up: species or system mouse
# Protocol: Protein expression of brain tissues was evaluated ex vivo, from flash frozen whole brain tissue following respective behavioral analyses, by Western blot analyses for SSTR4, APP and NEP. Tissues were homogenized in RIPA buffer containing protease inhibitor (Roche) using a 1:10 ratio (0.5 g=5 ml), transferred into tubes and spun at 10,000×g for 20 min (4° C.). The supernatant was taken and a protein assay was used to determine the amount of protein present. Samples (100 μg) were separated using an electrophoretic field on Biorad (Bio-Rad, Hercules, Calif.) Tris HCl gels (10%) at 175 V for 70 min following heating at 95° C. for 5 min. GelCode Blue Stain (Pierce, Rockford, Ill.) was used to confirm appropriate protein loading. The proteins were then transferred to nitrocellulose membranes with 240 mA at for 45 min (4° C.). The membranes were then blocked using 5% nonfat milk-Tris-buffered saline (20 mM Tris base, 137 mM NaCl, pH 7.6) with 0.1% Tween-20 for 4 h and then incubated overnight at 4° C. with primary antibodies (1:1,000-1:2,000 dilution) in PBS-0.5% BSA. Antibodies shown effective: SSTR4 (Sigma-Aldrich), NEP (Millipore, Billerica, Mass.), and APP (Millipore). The membranes were then washed with 5% nonfat milk-Tris-buffered saline buffer before incubation with the respective secondary antibody at a 1:2,000 dilution (in PBS-0.5% BSA) for 60 min at room temperature. Blots were developed using the enhanced chemiluminescence method (ECL+; Amersham Life Science Products; Springfield, Ill.), and protein bands visualized on X-ray film. Optical densities were measured by densitometer (Biorad) and evaluated against respective controls. After each initial protein expression assessment, membranes were then stripped and re-probed with actin (Sigma-Aldrich).
# Protein expression in brain tissues was evaluated ex vivo as described above in Example 1.
# [6] = system: APPswe transgenic mice; assay: T-maze avoidance learning acquisition in APPswe transgenic mice after i.c.v. injection; assay type: in vivo, mouse; conditions: 0.2 μg i.c.v.
# Description: The APPswe transgenic mouse carries a transgene coding for the 695-amino acid isoform of human Alzheimer A R precursor protein. (K. Hsiao et al., 274 Science 99-102, 1996). These mice express high concentrations of the mutant AR , with significant amyloid plaques, and display memory deficits. At 11-13 months of age they show a 14-fold increase in AR (1-42/43) over those at 2-8 months of age. Elevated AR levels are associated with the development of amyloid deposits in frontal, temporal and entorhinal cortex, hippocampus, presubiculum, and cerebellum, with some mice developing the signature cross pattern of deposits seen inhuman AD. […] Thus APPswe transgenic mice are also a good model for studying APP expression, amyloid plaque formation, neuronal decline, and memory loss associated with AD, and for studying drug candidates for treatment or prevention of AD. APPswe (Tg2576) mice, and non-transgenic siblings as controls, were obtained from Taconic (New York). All other materials and methods were as described for Example 1.
# AAPswe transgenic mice were administered 0.2 μg of NNC 26-91001.c.v. after a 2 hour fasting period, followed by an additional hour of fasting after administration. Animals were tested using the T-maze model as described above in Example 1.
# [7] = Body weight and behaviour during chronic i.p. dosing; assay type: in vivo, mouse; conditions: SAMP8 mice, i.p. 0.2-200 μg once a day, 28 days
# [8] = 0.2 μg i.c.v., after object-recognition task
smiles,measurement,setting,value
"C[C@@H](O)[C@@H]1NC(=O)[C@H](CCCCN)NC(=O)[C@@H](Cc2c[nH]c3ccccc23)NC(=O)[C@H](Cc2ccccc2)NC(=O)[C@@H](NC(=O)[C@H](N)Cc2ccccc2)CSSC[C@@H](C(=O)N[C@H](CO)[C@@H](C)O)NC1=O [octreotide, reference compound]",learned acquisition compared to vehicle,"[1]; SAMP8 mice, i.c.v., any dose 0.002-2.0 μg",no significant effects
S=C(NCCCc1c[nH]cn1)N(CCc1c[nH]c2ccccc12)Cc1cccc(Cl)c1Cl [LIU 686-06A],mean trials to first avoidance versus vehicle (learning),[2]; i.p. 0.2 μg daily,significantly lower number of mean trials to first avoidance
same,mean trials to criterion versus vehicle,"[2]; i.p. 20 μg daily, day 21 as printed",significantly lower number of mean trials to first criterion
"CC(C)C[C@H](NP(=O)(O)O[C@@H]1O[C@@H](C)[C@H](O)[C@@H](O)[C@H]1O)C(=O)N[C@@H](Cc1c[nH]c2ccccc12)C(=O)O [phosphoramidon, reference compound]","Aβ42 within vehicle groups (vehicle alone, +1 mM or +10 mM phosphoramidon)","[3]; i.c.v., post-T-maze",No change
same,"mean trials to first avoidance, vehicle versus vehicle combined with phosphoramidon","[1]; any dose of phosphoramidon (1 or 10 mM), i.c.v.",No significant change
S=C(NCCCc1c[nH]cn1)NCCCN(Cc1ccc(Cl)c(Cl)c1)c1ccc(Br)cn1 [NNC 26-9100],enhancement in recognition memory (time with novel object) versus vehicle,[4],approximately 2 fold
same,"SSTR4, APP, or NEP expression, NNC 26-9100 alone, co-administered phosphoramidon, and versus vehicle alone","[5]; 0.2 μg i.c.v., +1 mM or +10 mM phosphoramidon",No changes
same,"expression of SSTR4, APP, or NEP versus vehicle",[5]; [8],No significant changes
same,"expression of SSTR4, APP, or NEP compared to vehicle","[5]; SAMP8 brain, i.c.v., 0.002-2.0 μg",no significant changes
same,"expression of SSTR4, APP, or NEP versus vehicle","[5]; chronic i.p., any dose (0.2-200 μg daily), 28 days",No significant changes
same,mean trials to first avoidance versus vehicle (learning),[2]; i.p. 20 μg daily,significantly lower number of mean trials to first avoidance
same,mean trials to criterion versus vehicle (memory),"[2]; i.p. 20 μg daily, day 28, p<0.01",significantly lower mean trials to criterion
same,mean trials to first avoidance versus vehicle (learning),[2]; i.p. 200 μg daily,significantly lower number of mean trials to first avoidance
same,mean trials to criterion versus vehicle (memory),"[2]; i.p. 200 μg daily, day 28, p<0.05",significantly lower mean trials to criterion
same,avoidance learning acquisition,[6],effects in AAPswe transgenic mice similar to those obtained in SAMP8 mice
same,Aβ42 versus NNC 26-9100 alone group,"[3]; 0.2 μg i.c.v. + 10 mM phosphoramidon, post-T-maze",significant increase
same,Aβ42 versus vehicle,[3]; [8],no significant change
same,decrease in Aβ42 compared to vehicle,"[3]; SAMP8 brain, post-T-maze, i.c.v., all doses 0.002-2.0 μg",~20%
same,Aβ42 versus vehicle,"[3]; chronic i.p. 20 μg daily, 28 days",significant decrease
same,Aβ42 versus vehicle,"[3]; chronic i.p., any other dose (0.2-200 μg range)",no significant changes
same,weight loss or abnormal behaviors,[7],no animals in the study exhibiting weight loss or abnormal behaviors
same,mean trials to first avoidance versus NNC 26-9100 alone,"[1]; 0.2 μg i.c.v. co-administered with 1 mM phosphoramidon, p<0.05",significant increase in the number of mean trials to first avoidance
same,trials to first avoidance versus NNC 26-9100+1 mM phosphoramidon,[1]; 0.2 μg i.c.v. co-administered with 10 mM phosphoramidon,significantly higher number of trials to first avoidance
same,mean trials to first avoidance versus NNC 26-9100 alone,"[1]; 0.2 μg i.c.v. co-administered with 10 mM phosphoramidon, p<0.01",significant increase in the number of mean trials to first avoidance
same,learned avoidance (mean trials to first avoidance) compared to vehicle,"[1]; SAMP8 mice, i.c.v., 0.2 μg, T-maze 24 h after injection",significant improvement; also recorded: significantly lower number of mean trials to first avoidance
